# From the NIST ThermoML archive (doi:10.1021/je200068x)
# ± gives the expanded uncertainty stated by the source.
# Conditions: for surface tension liquid-gas: Drop weight; for mass density: 101.33 kPa, Liquid
Compound,surface tension liquid-gas (293.15 K) [mN/m],mass density (293.15 K) [kg/m3],surface tension liquid-gas (298.15 K) [mN/m],mass density (298.15 K) [kg/m3],surface tension liquid-gas (303.15 K) [mN/m],mass density (303.15 K) [kg/m3],surface tension liquid-gas (308.15 K) [mN/m],mass density (308.15 K) [kg/m3],surface tension liquid-gas (313.15 K) [mN/m],mass density (313.15 K) [kg/m3],surface tension liquid-gas (318.15 K) [mN/m],mass density (318.15 K) [kg/m3],surface tension liquid-gas (323.15 K) [mN/m],mass density (323.15 K) [kg/m3],surface tension liquid-gas (328.15 K) [mN/m],mass density (328.15 K) [kg/m3],surface tension liquid-gas (333.15 K) [mN/m],mass density (333.15 K) [kg/m3],surface tension liquid-gas (338.15 K) [mN/m],mass density (338.15 K) [kg/m3],other results
Cn1cc[n+](CCN)c1.F[B-](F)(F)F [3-(2-aminoethyl)-1-methyl-1H-imidazolium tetrafluoroborate],53.8 ± 0.5,1427.12 ± 2,53.5 ± 0.5,1422.31 ± 2,53.2 ± 0.5,1418.96 ± 2,52.4 ± 0.5,1413.23 ± 2,52 ± 0.5,1409.18 ± 1.9,51.5 ± 0.5,1404.69 ± 1.9,51.3 ± 0.5,1401.78 ± 1.9,50.8 ± 0.5,1395.42 ± 1.9,50.3 ± 0.5,1391.77 ± 1.9,50.2 ± 0.5,1388.54 ± 1.9,surface tension liquid-gas (343.15 K): 49.8 ± 0.5 mN/m; mass density (343.15 K): 1384.79 ± 1.9 kg/m3; surface tension liquid-gas (348.15 K): 49.4 ± 0.5 mN/m; mass density (348.15 K): 1380.94 ± 1.9 kg/m3; surface tension liquid-gas (353.15 K): 48.8 ± 0.5 mN/m; mass density (353.15 K): 1375.11 ± 1.8 kg/m3
C[n+]1ccn(CCCN)c1.F[B-](F)(F)F [1-(3-aminopropyl)-3-methyl-1H-imidazolium tetrafluoroborate],47.2 ± 0.5,1358.01 ± 1.8,47.1 ± 0.5,1354.6 ± 1.7,46.4 ± 0.5,1349.29 ± 1.7,46.2 ± 0.5,1345.68 ± 1.7,46.1 ± 0.5,1343.18 ± 1.7,45.4 ± 0.5,1336.97 ± 1.7,45.2 ± 0.5,1333.57 ± 1.7,44.8 ± 0.5,1328.96 ± 1.6,44.6 ± 0.5,1325.35 ± 1.6,44.1 ± 0.5,1321.05 ± 1.6,surface tension liquid-gas (343.15 K): 43.8 ± 0.5 mN/m; mass density (343.15 K): 1317.25 ± 1.6 kg/m3; surface tension liquid-gas (348.15 K): 43.4 ± 0.5 mN/m; mass density (348.15 K): 1313.04 ± 1.6 kg/m3; surface tension liquid-gas (353.15 K): 43.1 ± 0.5 mN/m; mass density (353.15 K): 1309.44 ± 1.6 kg/m3
